According to patent publication US20100324019A1 (priority 2007, published 2010):

How the values were obtained:
Format in all cases: in vivo, human
[1] = test system: healthy subjects by MTHFR C677T genotype; test: Blood pressure response to riboflavin intervention in healthy individuals; conditions: for Diastolic blood pressure / Systolic blood pressure: healthy subjects, median
Procedure: (§1) Blood pressure measurements were recorded as the mean of two separate measurements taken 15 minutes apart using an Omcron 705CP electronic blood pressure monitor (Medisave, Dorset, UK). Weight (kg) and height in (m), were used to calculate BMI (weight (kg)/height^2 (m)). Waist circumference (cm) was also measured. All measurements were made using Seca approved equipment (Brosch Direct, Ltd, Peterborough, UK).
Measurements were taken and recorded according to the procedures described in Example 1 above. The results obtained, namely the baseline characteristics of healthy subjects pre-screened and age-matched for MTHFR genotype (n=124), are shown in Table 4.
A placebo controlled intervention study in 81 healthy individuals was carried out.

[2] = test system: premature CVD patients by MTHFR C677T genotype; test: Plasma homocysteine (immunoassay) in 16-week riboflavin intervention trial, premature CVD patients; conditions: mean (SD)
Source text: (§2) Ethical approval was granted by both the Research Ethical Committee of the University of Ulster and Altnagelvin Hospital Trust, Londonderry, Northern Ireland. Premature CVD patients, males aged 55 years and females aged 65 years and under at time of event were recruited from the cardiac department of Altnagelvin hospital. Patients were indicated by a previous myocardial infarction (MI) or angina diagnosed by ECG changes. Potential participants (n=404) were screened for MTHFR genotype on the basis of a buccal swab sample. Those with the TT genotype were identified (n=54); these were age and sex matched with a similar number of patients with the CC or CT genotypes, resulting in a total of 197 patients who were invited to participate in the current intervention study (see FIG. 1). Exclusion criteria for all subjects were history of hepatic or renal disease, consumers of B-vitamin supplements, those taking medication known to interfere with folate metabolism, at least 3 months post MI prior to blood sampling. All volunteers provided written informed consent and completed a health and medical/lifestyle questionnaire which included questions regarding family history of CVD and smoking habits.
(§3) The study was a 16-week placebo controlled intervention trial. […] Non-fasting blood samples were collected at screening and post intervention either at Altnagelvin hospital, their workplace or their own homes.
One 30 ml blood sample was collected from each patient, one 9 ml EDTA tube for plasma and washed red cells, one 4 ml EDTA tube for the preparation of red blood cell lysates and the measurement of haemoglobin (HB) and packed cell volume (PCV); one 8 ml serum separation tube for serum extraction, one 5 ml serum separation tube for lipid profile analysis and one 4 ml sodium citrate tube for coagulation screening. The 9 ml EDTA was immediately wrapped in tin foil and placed on ice. Samples were centrifuged within 2 hours of sampling at 3000 rpm for 15 minutes. Plasma was removed and stored at −80° C. for plasma homocysteine and PLP analysis. The buffy layer was removed for confirmation of MTHFR genotyping and stored at −20° C. The remaining red blood cells were thrice washed with phosphate buffered saline (PBS) with the supernatant and remaining buffy layer being discarded after each wash. […] Serum was removed and stored at −80° C. for serum folate.
Plasma homocysteine was measured by immunoassay using the Abbott Imx analyser (Leino A., 1999, “Fully automated measurement of total homocysteine in plasma and serum on the Abbott IMx analyzer.” Clin. Chem, 45, 569-71). Serum folate and red blood cell folate concentrations were determined by microbiological assay using the cryopreserved, microtitre plate method (Molloy et al, 1997, “Microbiological assay for serum, plasma, and red cell folate using cryopreserved, microtiter plate method.” Methods Enzymol, 281, 43-53). Plasma PLP was determined by reverse-phase high pressure liquid chromatography (HPLC) with fluorescence detection (Bates et al, 1999, “Plasma pyridoxal phosphate and pyridoxic acid and their relationship to plasma homocysteine in a representative sample of British men and women aged 65 years and over.” British Journal of Nutrition, 1, 191-201). Identification of the MTHFR C677T genotype was carried out using the polymerase chain reaction (PCR) amplification followed by HinF1 (Frosst et al, 1995, “A candidate genetic risk factor for vascular disease: A common mutation in methylenetetrahydrofolate reductase.” Nat Genetc, 10, 111-113). […] Coagulation screening was measured by ACI Instrumentation Laboratories. HB and PCV were measured using Sysmex XE-2100 (Sysmex, UK Ltd. Milton Keynes UK) analyser and lipid profiles were measured using Abbott Architect CI 8200 analyser (Abbott Laboratories, USA). For all assays, samples were analysed blind, in duplicate and within 1 year of collection. […]

[3] = test system: premature CVD patients by MTHFR C677T genotype; test: Blood pressure in 16-week placebo controlled riboflavin intervention trial, premature CVD patients; conditions: for Diastolic blood pressure / Systolic blood pressure: mean (SD)
Source text: as §2, §3, §1
All statistical analysis was performed using the SPSS statistical package for the social sciences (version 11.0, SPSS UK Ltd., Chersey, United Kingdom). For normalisation purposes variables were log-transformed as appropriate prior to statistical analysis. One way ANOVA with Tukey's post hoc test was used to examine the differences in the baseline characteristics among the genotype groups. Categorical data were assessed using chi squared analysis. Correlation analysis was performed using bivariate Pearson correlation coefficients. […] P values<0.05 were considered significant.

[4] = CC genotype, After riboflavin 1.6 mg/d, 16 weeks
[5] = CC genotype, Before intervention
[6] = CT genotype, After riboflavin 1.6 mg/d, 16 weeks
[7] = CT genotype, Before intervention
[8] = TT genotype, After riboflavin 1.6 mg/d, 16 weeks
[9] = TT genotype, Before intervention
[10] = CC genotype, premature CVD patients, Post 16 weeks riboflavin 1.6 mg/day, n = 32
[11] = CC genotype, premature CVD patients, Pre intervention, n = 32
[12] = CT genotype, premature CVD patients, Post 16 weeks riboflavin 1.6 mg/day, n = 35
[13] = CT genotype, premature CVD patients, Pre intervention, n = 35
[14] = TT genotype, premature CVD patients, 16 weeks low-dose riboflavin
[15] = TT genotype, premature CVD patients, Post 16 weeks riboflavin 1.6 mg/day, n = 25
[16] = TT genotype, premature CVD patients, Pre intervention, n = 25
[17] = estimated from the magnitude of blood pressure lowering in TT patients

`Cc1cc2nc3c(=O)[nH]c(=O)nc-3n(C[C@H](O)[C@H](O)[C@H](O)CO)c2cc1C` [Riboflavin, riboflavin] was tested, and the “effect on systolic or diastolic blood pressure” value ([1]; healthy cohort with the TT genotype, 1.6 mg/day for 16 weeks) was “no significant systolic or diastolic blood pressure lowering effect”, the “effect on diastolic blood pressure” value ([1]; healthy individuals, CC group, 1.6 mg/day for 16 weeks) was “increase” and the Diastolic blood pressure [1, 4] was 86.5 mmHg. For the same molecule, the Systolic blood pressure [1, 4] was 143.5 mmHg, the Diastolic blood pressure [1, 5] was 80.5 mmHg and the Systolic blood pressure [1, 5] was 137.0 mmHg. The Diastolic blood pressure [1, 6] was 89.0 mmHg, the Systolic blood pressure [1, 6] was 150.0 mmHg and the Diastolic blood pressure [1, 7] was 87.0 mmHg. For the same molecule, the Systolic blood pressure [1, 7] was 150.0 mmHg, the Diastolic blood pressure [1, 8] was 88.5 mmHg and the Systolic blood pressure [1, 8] was 145.0 mmHg. For the same molecule, the Diastolic blood pressure [1, 9] was 88.5 mmHg, the Systolic blood pressure [1, 9] was 139.5 mmHg and the Homocysteine ([2]; CC genotype, Post 16 weeks riboflavin 1.6 mg/day, n = 32) was 9.8 (3.6) μmol/l. For the same molecule, the Homocysteine ([2]; CC genotype, Pre intervention, n = 32) was 10.1 (3.9) μmol/l, the Homocysteine ([2]; CT genotype, Post 16 weeks riboflavin 1.6 mg/day, n = 35) was 10.6 (6.3) μmol/l and the Homocysteine ([2]; CT genotype, Pre intervention, n = 35) was 10.5 (3.8) μmol/l. The Homocysteine ([2]; TT genotype, Post 16 weeks riboflavin 1.6 mg/day, n = 25) was 10.0 (3.1) μmol/l, the Homocysteine ([2]; TT genotype, Pre intervention, n = 25) was 11.3 (4.4) μmol/l and the Diastolic blood pressure [3, 10] was 80.4 (12.0) mmHg. For the same molecule, the Systolic blood pressure [3, 10] was 133.4 (15.3) mmHg, the Diastolic blood pressure [3, 11] was 80.1 (8.9) mmHg and the Systolic blood pressure [3, 11] was 134.3 (14.9) mmHg. The “effect on blood pressure (either systolic or diastolic)” value ([3]; CC genotype, premature CVD patients, following riboflavin administration) was “no significant reduction”, the Diastolic blood pressure [3, 12] was 84.2 (9.2) mmHg and the Systolic blood pressure [3, 12] was 135.4 (15.4) mmHg. For the same molecule, the Diastolic blood pressure [3, 13] was 86.0 (10.8) mmHg, the Systolic blood pressure [3, 13] was 136.2 (16.9) mmHg and the “decrease in diastolic blood pressure” value [3, 14] was 8 units. For the same molecule, the “decrease in systolic blood pressure” value [3, 14] was 11 units, the “effect on systolic and diastolic blood pressure” value [3, 14] was “significant lowering” and the Diastolic blood pressure [3, 15] was 80.2 (14.2) mmHg. The Systolic blood pressure [3, 15] was 131.6 (20.9) mmHg, the Diastolic blood pressure [3, 16] was 88.1 (14.2) mmHg and the Systolic blood pressure [3, 16] was 142.8 (22.1) mmHg. The “lowering of risk of heart disease estimated from meta-analyses” value [3, 17] was 29% and the “lowering of risk of stroke estimated from meta-analyses” value [3, 17] was 46%.
